Test results reported in PubChem BioAssay (NCI).
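These data come from cells grown in 96-well plates and exposed to compound for 48 hours at five concentrations. GI50 = concentration required for 50% inhibition of growth. At the TGI there is no net growth.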

How the values were obtained:
Assay in all cases: NCI tumour cell line growth inhibition, 48 h
PC-3 prostate = test system: PC-3 prostate
DU-145 prostate = test system: DU-145 prostate
TK-10 renal = test system: TK-10 renal
RPMI-8226 leukemia = test system: RPMI-8226 leukemia
HT29 colon = test system: HT29 colon
EKVX NSCLC = test system: EKVX NSCLC
CCRF-CEM leukemia = test system: CCRF-CEM leukemia
ACHN renal = test system: ACHN renal
SN12C renal = test system: SN12C renal
MDA-MB-435 = test system: MDA-MB-435
SF-295 CNS = test system: SF-295 CNS
HCC-2998 colon = test system: HCC-2998 colon
NCI-H23 lung = test system: NCI-H23 lung
NCI-H522 lung = test system: NCI-H522 lung
SK-MEL-5 melanoma = test system: SK-MEL-5 melanoma
OVCAR-8 ovarian = test system: OVCAR-8 ovarian
HL-60(TB) leukemia = test system: HL-60(TB) leukemia
CAKI-1 renal = test system: CAKI-1 renal
SK-OV-3 ovarian = test system: SK-OV-3 ovarian
SF-539 CNS = test system: SF-539 CNS
MDA-N = test system: MDA-N
A549 NSCLC = test system: A549 NSCLC
COLO 205 colon = test system: COLO 205 colon
MALME-3M melanoma = test system: MALME-3M melanoma
MOLT-4 leukemia = test system: MOLT-4 leukemia
OVCAR-4 ovarian = test system: OVCAR-4 ovarian
HOP-92 NSCLC = test system: HOP-92 NSCLC
RXF 393 renal = test system: RXF 393 renal
UACC-62 melanoma = test system: UACC-62 melanoma
HCT-15 colon = test system: HCT-15 colon
T-47D breast = test system: T-47D breast
U251 CNS = test system: U251 CNS
NCI-H226 lung = test system: NCI-H226 lung
IGROV1 ovarian = test system: IGROV1 ovarian
SNB-75 CNS = test system: SNB-75 CNS
K-562 leukemia = test system: K-562 leukemia
UACC-257 melanoma = test system: UACC-257 melanoma
SW-620 colon = test system: SW-620 colon
KM12 colon = test system: KM12 colon
SK-MEL-2 melanoma = test system: SK-MEL-2 melanoma
SNB-19 CNS = test system: SNB-19 CNS
M14 melanoma = test system: M14 melanoma
HCT-116 colon = test system: HCT-116 colon
MDA-MB-231 breast = test system: MDA-MB-231 breast
HOP-62 NSCLC = test system: HOP-62 NSCLC
A498 renal = test system: A498 renal
OVCAR-3 ovarian = test system: OVCAR-3 ovarian
SK-MEL-28 melanoma = test system: SK-MEL-28 melanoma
NCI/ADR-RES ovarian = test system: NCI/ADR-RES ovarian
786-0 renal = test system: 786-0 renal
UO-31 renal = test system: UO-31 renal
LOX IMVI melanoma = test system: LOX IMVI melanoma
MCF7 breast = test system: MCF7 breast
BT-549 breast = test system: BT-549 breast
NCI-H460 lung = test system: NCI-H460 lung
SR leukemia = test system: SR leukemia
SF-268 CNS = test system: SF-268 CNS
HS 578T breast = test system: HS 578T breast
OVCAR-5 ovarian = test system: OVCAR-5 ovarian

CSc1nc(Cl)c(Br)c(Nc2c[nH]c(=O)[nH]c2=O)n1
TGI (PC-3 prostate): 45.8 µM
TGI (DU-145 prostate): 49.9 µM
TGI (TK-10 renal): 40 µM
TGI (RPMI-8226 leukemia): > 100 µM
TGI (HT29 colon): 29.4 µM
TGI (EKVX NSCLC): 33.8 µM
TGI (CCRF-CEM leukemia): 49 µM
TGI (ACHN renal): 35.5 µM
TGI (SN12C renal): 35.3 µM
TGI (MDA-MB-435): 83.7 µM
TGI (SF-295 CNS): 42.6 µM
TGI (HCC-2998 colon): 42.2 µM
TGI (NCI-H23 lung): 35.7 µM
TGI (NCI-H522 lung): 3.88 µM
TGI (SK-MEL-5 melanoma): 42.6 µM
TGI (OVCAR-8 ovarian): 30.4 µM
TGI (HL-60(TB) leukemia): 5.47 µM
TGI (CAKI-1 renal): 3.22 µM
TGI (SK-OV-3 ovarian): 42.7 µM
TGI (SF-539 CNS): 45.2 µM
TGI (MDA-N): 46.9 µM
TGI (A549 NSCLC): 89.5 µM
TGI (COLO 205 colon): 32.9 µM
TGI (MALME-3M melanoma): 43.9 µM
TGI (MOLT-4 leukemia): 43.6 µM
TGI (OVCAR-4 ovarian): 37.9 µM
TGI (HOP-92 NSCLC): 31.8 µM
TGI (RXF 393 renal): 45.4 µM
TGI (UACC-62 melanoma): 31.4 µM
TGI (HCT-15 colon): 27.6 µM
TGI (T-47D breast): 40 µM
TGI (U251 CNS): 48.5 µM
TGI (NCI-H226 lung): 41.7 µM
TGI (IGROV1 ovarian): 19.9 µM
TGI (SNB-75 CNS): 42.7 µM
TGI (K-562 leukemia): > 100 µM
TGI (UACC-257 melanoma): 38.7 µM
TGI (SW-620 colon): > 100 µM
TGI (KM12 colon): 67.8 µM
TGI (SK-MEL-2 melanoma): 44.4 µM
TGI (SNB-19 CNS): 44.9 µM
TGI (M14 melanoma): > 100 µM
TGI (HCT-116 colon): 29.3 µM
TGI (MDA-MB-231 breast): 30.1 µM
TGI (HOP-62 NSCLC): 53.5 µM
TGI (A498 renal): 35.7 µM
TGI (OVCAR-3 ovarian): 40.7 µM
TGI (SK-MEL-28 melanoma): 95.8 µM
TGI (NCI/ADR-RES ovarian): 43.3 µM
TGI (786-0 renal): 27.1 µM
TGI (UO-31 renal): 37.5 µM
TGI (LOX IMVI melanoma): 39.3 µM
TGI (MCF7 breast): > 100 µM

COc1cc(N(C)C)ccc1/C=c1/c2ccccc2n2c1cc(-c1ccccc1)[n+]2C
TGI (PC-3 prostate): 1.1 µM
TGI (DU-145 prostate): 1.26 µM
TGI (TK-10 renal): 1.83 µM
TGI (RPMI-8226 leukemia): 1.3 µM
TGI (EKVX NSCLC): 2.21 µM
TGI (CCRF-CEM leukemia): 1.55 µM
TGI (ACHN renal): 1.31 µM
TGI (MDA-MB-435): 1.32 µM
TGI (SF-295 CNS): 1.49 µM
TGI (HCC-2998 colon): 1.76 µM
TGI (HL-60(TB) leukemia): 1.26 µM
TGI (CAKI-1 renal): 2.33 µM
TGI (SK-OV-3 ovarian): 1.44 µM
TGI (SF-539 CNS): 0.873 µM
TGI (MDA-N): 1.26 µM
TGI (A549 NSCLC): 1.38 µM
TGI (COLO 205 colon): 0.37 µM
TGI (OVCAR-4 ovarian): 2.02 µM
TGI (RXF 393 renal): 1.37 µM
TGI (BT-549 breast): 1.18 µM
TGI (NCI-H226 lung): 2.11 µM
TGI (NCI-H460 lung): 1.23 µM
TGI (SNB-75 CNS): 1.16 µM
TGI (K-562 leukemia): > 100 µM
TGI (UACC-257 melanoma): 1.66 µM
TGI (SW-620 colon): 2.02 µM
TGI (KM12 colon): 0.418 µM
TGI (SK-MEL-2 melanoma): 2.03 µM
TGI (SNB-19 CNS): 1.58 µM
TGI (M14 melanoma): 1.45 µM
TGI (HOP-62 NSCLC): 1.03 µM
TGI (A498 renal): 6.76 µM
TGI (OVCAR-3 ovarian): 1.4 µM
TGI (SK-MEL-28 melanoma): 2.04 µM
TGI (NCI/ADR-RES ovarian): > 100 µM
TGI (786-0 renal): 1.22 µM

COc1cc(C(=O)/C=C/c2c(-c3ccc(F)cc3)nc3sccn23)cc(OC)c1OC
GI50 (PC-3 prostate): 3.57 µM
TGI (PC-3 prostate): > 46.2 µM
GI50 (DU-145 prostate): 2.52 µM
TGI (DU-145 prostate): 6.64 µM
GI50 (TK-10 renal): 3.6 µM
TGI (TK-10 renal): > 24.6 µM
GI50 (RPMI-8226 leukemia): 2.59 µM
TGI (RPMI-8226 leukemia): 44.6 µM
GI50 (HT29 colon): 2.53 µM
TGI (HT29 colon): 6.11 µM
GI50 (EKVX NSCLC): 3.03 µM
TGI (EKVX NSCLC): > 100 µM
GI50 (CCRF-CEM leukemia): 2.68 µM
TGI (CCRF-CEM leukemia): > 27.3 µM
GI50 (ACHN renal): 2.99 µM
TGI (ACHN renal): 13.2 µM
GI50 (SN12C renal): 2 µM
TGI (SN12C renal): 15.8 µM
GI50 (MDA-MB-435): 2.13 µM
TGI (MDA-MB-435): 7.92 µM
GI50 (SF-295 CNS): 2.37 µM
TGI (SF-295 CNS): 10.6 µM
GI50 (HCC-2998 colon): 2.03 µM
TGI (HCC-2998 colon): 3.99 µM
GI50 (NCI-H23 lung): 2.43 µM
TGI (NCI-H23 lung): 10.6 µM
GI50 (NCI-H522 lung): 4.2 µM
TGI (NCI-H522 lung): > 26.2 µM
GI50 (SK-MEL-5 melanoma): 1.28 µM
TGI (SK-MEL-5 melanoma): 2.81 µM
GI50 (OVCAR-8 ovarian): 2.4 µM
TGI (OVCAR-8 ovarian): > 21.4 µM
GI50 (HL-60(TB) leukemia): 1.61 µM
TGI (HL-60(TB) leukemia): 4.19 µM
GI50 (SR leukemia): 1.41 µM
TGI (SR leukemia): 5.09 µM
GI50 (SF-268 CNS): 2.37 µM
TGI (SF-268 CNS): 7.36 µM
GI50 (CAKI-1 renal): 0.405 µM
TGI (CAKI-1 renal): > 30 µM
GI50 (SK-OV-3 ovarian): 2.68 µM
TGI (SK-OV-3 ovarian): 11.9 µM
GI50 (SF-539 CNS): 1.59 µM
TGI (SF-539 CNS): 3.62 µM
GI50 (A549 NSCLC): 2.54 µM
TGI (A549 NSCLC): > 21.1 µM
GI50 (COLO 205 colon): 2.27 µM
TGI (COLO 205 colon): 6.98 µM
GI50 (MALME-3M melanoma): 3.96 µM
TGI (MALME-3M melanoma): > 33.9 µM
GI50 (MOLT-4 leukemia): 2.16 µM
TGI (MOLT-4 leukemia): 6.35 µM
GI50 (OVCAR-4 ovarian): 3.27 µM
TGI (OVCAR-4 ovarian): 38.1 µM
GI50 (HOP-92 NSCLC): 1.7 µM
GI50 (RXF 393 renal): 0.945 µM
TGI (RXF 393 renal): 4.23 µM
GI50 (UACC-62 melanoma): 2.28 µM
TGI (UACC-62 melanoma): 13.9 µM
GI50 (HCT-15 colon): 2.87 µM
TGI (HCT-15 colon): 13.1 µM
GI50 (T-47D breast): 2.3 µM
TGI (T-47D breast): 14.3 µM
GI50 (U251 CNS): 2.41 µM
TGI (U251 CNS): 9.23 µM
GI50 (HS 578T breast): 2.05 µM
TGI (HS 578T breast): 6.44 µM
GI50 (BT-549 breast): 0.342 µM
TGI (BT-549 breast): 12.5 µM
GI50 (NCI-H226 lung): 2.09 µM
TGI (NCI-H226 lung): 9.99 µM
GI50 (IGROV1 ovarian): 3.49 µM
GI50 (NCI-H460 lung): 1.95 µM
TGI (NCI-H460 lung): 4.51 µM
GI50 (SNB-75 CNS): 1.83 µM
TGI (SNB-75 CNS): 7.31 µM
GI50 (K-562 leukemia): 1.85 µM
TGI (K-562 leukemia): 6.64 µM
GI50 (UACC-257 melanoma): 14.1 µM
TGI (UACC-257 melanoma): 33.7 µM
GI50 (SW-620 colon): 2.92 µM
TGI (SW-620 colon): 11.2 µM
GI50 (KM12 colon): 2.24 µM
TGI (KM12 colon): 6.27 µM
GI50 (SK-MEL-2 melanoma): 5.59 µM
TGI (SK-MEL-2 melanoma): > 27.9 µM
GI50 (SNB-19 CNS): 3.37 µM
TGI (SNB-19 CNS): 27.8 µM
GI50 (M14 melanoma): 2.33 µM
TGI (M14 melanoma): 9.44 µM
GI50 (HCT-116 colon): 2.31 µM
TGI (HCT-116 colon): 8.75 µM
GI50 (MDA-MB-231 breast): 2.34 µM
TGI (MDA-MB-231 breast): > 29.8 µM
GI50 (HOP-62 NSCLC): 1.96 µM
TGI (HOP-62 NSCLC): 5.73 µM
GI50 (A498 renal): 2.35 µM
TGI (A498 renal): 6.16 µM
GI50 (OVCAR-3 ovarian): 2.27 µM
TGI (OVCAR-3 ovarian): 6.81 µM
GI50 (SK-MEL-28 melanoma): 4.84 µM
TGI (SK-MEL-28 melanoma): 17.2 µM
GI50 (OVCAR-5 ovarian): 1.85 µM
TGI (OVCAR-5 ovarian): 4.79 µM
GI50 (NCI/ADR-RES ovarian): 2.05 µM
TGI (NCI/ADR-RES ovarian): 6.28 µM
GI50 (786-0 renal): 2.54 µM
TGI (786-0 renal): 6.49 µM
GI50 (UO-31 renal): 2.87 µM
TGI (UO-31 renal): > 27 µM
GI50 (LOX IMVI melanoma): 1.8 µM
TGI (LOX IMVI melanoma): 5.15 µM
GI50 (MCF7 breast): 1.9 µM
TGI (MCF7 breast): 7.88 µM
